US11059824B2, “Substituted purines as TLR7 agonists” (Primmune Therapeutics, Inc., priority 2018, dated 2021)
Several values for one entry are separate records, joined by “and”; a condition that tells them apart may be missing. Equal entries are not always repeated. Marks after values point to notes of the source that are not given here.

Key:
[1] = cynomolgus monkeys, from Table 23 of U.S. Pat. No. 7,575,068 B2, cited from earlier work; for % F (percent bioavailability of loxoribine administered as prodrug): oral prodrug of loxoribine
[2] = Oral bioavailability in cynomolgus monkeys; format: in vivo; conditions: vs loxoribine administered orally as itself or as prodrugs
Description: From two to four male or female cynomolgus monkeys were used for animal testing studies. The study compounds were formulated in a vehicle (e.g. 50 mM Phosphate Buffered Saline, pH 7.4) appropriate for animal oral or intravenous administration. Parent compounds 1, 5, 26 and 27 were administered at 1 mg/kg by IV administration whereas prodrugs of the corresponding compounds were administered at 2 mg/kg. After dosing, 0.5 mL blood samples were collected typically at 0.083, 0.33, 1, 2, 4, 6, 8, 12 and 24 hours post-dosing (iv administration) or 0.25, 0.5, 1, 2, 4, 6, 8, 12 and 24 hours post-dosing (oral administration). Plasma was separated from blood and analyzed for the active agonists by well-known LC-MS techniques. […] Percent bioavailability (F %) of compounds when administered orally as prodrug was calculated from the ratio of dose-normalized AUC of parent from oral prodrug administration to that of dose-normalized parent AUC from IV parent administration and reported in Table 4.

human TLR7 = human TLR7 (Homo sapiens (Human), UniProt Q9NYK1); test: TLR7 reporter assay (HEK293-TLR-NF-κB inducible SEAP reporter); format: cell-based; conditions: HEK293 cells stably expressing human TLR7 with NF-κB-driven SEAP reporter; 15-24 hours
human TLR7, sequence (Q9NYK1 27-1049): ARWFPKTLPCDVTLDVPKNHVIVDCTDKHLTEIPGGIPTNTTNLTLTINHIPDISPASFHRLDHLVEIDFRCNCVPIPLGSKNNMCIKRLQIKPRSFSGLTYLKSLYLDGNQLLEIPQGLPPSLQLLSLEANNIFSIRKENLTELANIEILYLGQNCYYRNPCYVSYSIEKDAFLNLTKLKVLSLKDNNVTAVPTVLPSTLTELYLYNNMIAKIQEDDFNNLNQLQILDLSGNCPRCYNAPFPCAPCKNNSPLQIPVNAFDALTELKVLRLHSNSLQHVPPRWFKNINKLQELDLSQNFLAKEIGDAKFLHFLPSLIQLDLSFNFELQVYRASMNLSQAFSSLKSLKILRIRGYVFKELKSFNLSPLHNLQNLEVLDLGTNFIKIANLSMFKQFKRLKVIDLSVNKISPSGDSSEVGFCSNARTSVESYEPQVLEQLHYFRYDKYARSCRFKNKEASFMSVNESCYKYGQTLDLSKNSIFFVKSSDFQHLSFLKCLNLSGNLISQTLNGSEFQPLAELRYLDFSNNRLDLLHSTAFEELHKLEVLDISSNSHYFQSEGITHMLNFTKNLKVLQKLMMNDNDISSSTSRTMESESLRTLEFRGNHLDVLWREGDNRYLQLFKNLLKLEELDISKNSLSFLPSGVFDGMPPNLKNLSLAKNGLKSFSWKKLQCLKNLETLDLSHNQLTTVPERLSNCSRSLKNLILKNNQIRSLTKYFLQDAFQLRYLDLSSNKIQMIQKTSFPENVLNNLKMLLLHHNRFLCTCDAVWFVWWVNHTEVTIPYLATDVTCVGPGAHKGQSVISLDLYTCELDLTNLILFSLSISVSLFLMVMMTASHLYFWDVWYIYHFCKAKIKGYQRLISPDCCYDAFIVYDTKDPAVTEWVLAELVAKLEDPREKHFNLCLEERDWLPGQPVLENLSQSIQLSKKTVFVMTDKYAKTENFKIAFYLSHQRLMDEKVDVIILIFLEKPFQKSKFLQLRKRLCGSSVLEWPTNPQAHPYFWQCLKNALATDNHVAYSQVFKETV
Source text: (§1) The engagement of TLRs by cognate ligands triggers downstream signaling cascades, leading to the activation of NF-κB and other transcription factors which initiate various immunomodulatory effects. The human embryonic kidney cell line, HEK293, is essentially non-responsive to TLR agonists, but ectopic expression of TLRs in these cells allows cognate agonists to activate endogenous NF-κB. Accordingly, the HEK293-TLR-NF-κB inducible reporter system is used to assay TLR agonists. HEK293 cell lines stably expressing human TLR7 or TLR8 together with an NF-κB-driven-secreted alkaline phosphatase (SEAP) reporter were invented at InvivoGen (San Diego, Calif., USA) and used to assess compounds of the present invention for TLR7 and TLR8 agonist activities. Cells were seeded at 2-5×10^4 cells/well in 96 well plates ([…]) and treated with various concentrations of compound (10 μl) for 15-24 hours. SEAP activity was determined by measuring OD at 650 nm; the media used to culture the cell lines contains the reagents required for SEAP detection. The EC50 values in Table 2 are calculated from fitting the dose response of measured SEAP activity for each compound to the following equation: Y=ymax*c^nh/(EC50^nh+c^nh)+blank where Y is the experimentally measured OD650 at concentration c of test article, blank is the observed OD650 in the absence of TLR7 agonist, ymax is the difference between the measured OD650 in the presence of either 28.5 μM resiquimod or 1.675 μM CL307 and the blank and values of EC50 and nh are determined by nonlinear least squares analysis.

[3] = test system: interferon-α production in hPBMCs; test: Induction of interferon-α production in hPBMCs; format: cell-based, human; conditions: interferon-α production from hPBMCs; for Weighted MEC: geometric mean of all individual MECs across all donors, 24 hours; for individual MEC values: per donor
Description: Treatment of hPBMCs with a TLR7 agonist typically induces substantial production of interferon-α as well as lesser amounts of a variety of other cytokines and chemokines. A typical experiment uses hPBMCs isolated from a healthy donor and placed in replicate cell culture wells; typically 1.0-7.5×10^6 cells are placed in each well. Test compound is added and the cells cultured for 24 hours at 37° C. in a humidified atmosphere containing 5% CO2 post-addition; untreated controls are included. Secreted interferon-α production is measured using an a multisubtype interferon-α ELISA kit like those from PBL Assay Sciences or specifically as IFNα2a as part of a panel of cytokines and chemokines using luminex methodologies. The minimal effective concentration (MEC) is the minimum concentration in a dose response curve where a significant increase in interferon-α production (generally at least 20 pg/ml) is observed above baseline. MEC values for each compound are determined for at least three donors. The weighted MEC for each compound is the geometric mean of all individual MECs across all donors. Concentrations tested typically consist of a two-fold dilution series starting at 100 μM. In the calculation of weighted MEC, any value >100 μM is arbitrarily set to 200 μM unless all MECs for a compound exceed 100 μM

[4] = test system: B16-F10 rodent melanoma tumor cells; test: Antitumor activity in rodent model (B16-F10 syngenic); format: in vivo, mice; conditions: IV by tail vein, 10 total doses, two weeks after randomization
Description: B16-F10 rodent melanoma tumor cells were injected into the flank of 32 mice in a syngenic model. […] Administration of the drugs was initiated on the following day. Tumor volumes were monitored for two weeks.

human TLR8 = human TLR8 (Homo sapiens (Human), UniProt Q9NR97); test: TLR8 reporter cell assay (HEK293-TLR-NF-κB inducible SEAP reporter); format: cell-based; conditions: incubation with resiquimod
human TLR8, sequence (Q9NR97 27-1041): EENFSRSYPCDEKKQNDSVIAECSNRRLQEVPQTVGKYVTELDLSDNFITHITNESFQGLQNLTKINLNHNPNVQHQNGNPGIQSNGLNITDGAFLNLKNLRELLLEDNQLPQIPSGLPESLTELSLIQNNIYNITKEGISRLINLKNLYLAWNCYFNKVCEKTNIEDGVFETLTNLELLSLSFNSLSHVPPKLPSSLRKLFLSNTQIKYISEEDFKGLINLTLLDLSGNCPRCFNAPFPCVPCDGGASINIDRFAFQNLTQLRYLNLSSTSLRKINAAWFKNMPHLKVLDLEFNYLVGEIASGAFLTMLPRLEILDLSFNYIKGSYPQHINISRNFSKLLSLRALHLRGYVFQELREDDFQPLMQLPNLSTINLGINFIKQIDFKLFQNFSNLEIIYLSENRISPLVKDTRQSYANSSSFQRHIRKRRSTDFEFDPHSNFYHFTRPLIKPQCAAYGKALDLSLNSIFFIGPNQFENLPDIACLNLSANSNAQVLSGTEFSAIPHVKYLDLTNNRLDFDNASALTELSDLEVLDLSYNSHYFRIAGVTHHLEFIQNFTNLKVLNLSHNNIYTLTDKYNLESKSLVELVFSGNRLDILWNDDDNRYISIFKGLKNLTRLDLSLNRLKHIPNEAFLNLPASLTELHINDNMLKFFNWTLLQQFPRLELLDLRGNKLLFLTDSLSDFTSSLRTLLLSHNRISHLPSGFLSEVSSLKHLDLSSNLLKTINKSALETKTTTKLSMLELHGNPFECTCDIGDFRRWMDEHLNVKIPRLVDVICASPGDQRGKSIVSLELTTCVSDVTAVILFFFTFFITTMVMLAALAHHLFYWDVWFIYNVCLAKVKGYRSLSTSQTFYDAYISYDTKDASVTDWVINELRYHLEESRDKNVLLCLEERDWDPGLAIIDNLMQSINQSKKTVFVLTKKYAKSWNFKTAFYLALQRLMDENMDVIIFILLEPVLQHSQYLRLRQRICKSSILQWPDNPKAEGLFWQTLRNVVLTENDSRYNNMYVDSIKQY
Source text: as §1, with “The EC50 values in Table 2 are calculated from fitting the dose response of measured SEAP activity for each compound to the following equation: Y=ymax*c^nh/(EC50^nh+c^nh)+blank where Y is the experimentally measured OD650 at concentration c of test article, blank is the observed OD650 in the absence of TLR7 agonist, ymax is the difference between the measured OD650 in the presence of either 28.5 μM resiquimod or 1.675 μM CL307 and the blank and values of EC50 and nh are determined by nonlinear least squares analysis.” left out

Row | SMILES | EC50 (human TLR7) [µM] | Weighted MEC [3] | individual MEC values [3] [µM] | further results
1 | C=CCn1c(=O)n([C@@H]2O[C@H](CO)[C@@H](O)[C@H]2O)c2nc(N)nc(OCC)c21 [7-allyl-2-amino-6-ethoxy-9-β-D-ribofuranosyl-7,9-dihydropurin-8-one] |  |  |  | % F (percent bioavailability of loxoribine administered as prodrug) [1]: 9%
2 | C=CCn1c(=O)n([C@@H]2O[C@H](CO)[C@@H](O)[C@H]2O)c2nc(N)ncc21 [7-allyl-2-amino-9-β-D-ribofuranosyl-7,9-dihydropurin-8-one] |  |  |  | % F (percent bioavailability of loxoribine administered as prodrug) [1]: 13%
3 | Nc1nc2c(c(=O)[nH]1)n(CC1CC1)c(=O)n2[C@@H]1O[C@H](CO)[C@H](O)[C@H]1O [Compound 1, 2-Amino-7-(cyclopropylmethyl)-9-((2R,3R,4R,5R)-3,4-dihydroxy-5-(hydroxymethyl)tetrahydrofuran-2-yl)-7,9-dihydro-1H-purine-6,8-dione] | 188 | 66* μM |  | Systemic delivery by prodrugs compared with loxoribine [2]: substantially greater than loxoribine
4 | C#CCn1c(=O)n([C@@H]2O[C@H](CO)[C@H](O)[C@H]2O)c2nc(N)[nH]c(=O)c21 [Compound 5, 2-Amino-9-((2R,3R,4R,5R)-3,4-dihydroxy-5-(hydroxymethyl)tetrahydrofuran-2-yl)-7-(prop-2-yn-1-yl)-7,9-dihydro-1H-purine-6,8-dione] | 292 | less than or equal to 40 μM and 34 μM | < 100 | Mean tumor growth inhibition (% TGI) versus the control group ([4]; group (ii): 40 mg/kg, BID for five consecutive days): 40%; Mean tumor growth inhibition (% TGI) versus the control group ([4]; group (iii): 40 mg/kg, BID every other day): 64%
5 | C#CCn1c(=O)n([C@@H]2O[C@H](CO)C[C@H]2O)c2nc(N)[nH]c(=O)c21 [Compound 26, 2-Amino-9-((2R,3R,5S)-3-hydroxy-5-(hydroxymethyl)tetrahydrofuran-2-yl)-7-(prop-2-yn-1-yl)-7,9-dihydro-1H-purine-6,8-dione] | 519 | less than or equal to 40 μM and 31 μM | < 100 | Systemic delivery by prodrugs compared with loxoribine [2]: substantially greater than loxoribine
6 | C#CCn1c(=O)n([C@@H]2O[C@H](CO)[C@@H](F)[C@H]2O)c2nc(N)[nH]c(=O)c21 [Compound 27, 2-Amino-9-((2R,3S,4S,5R)-4-fluoro-3-hydroxy-5-(hydroxymethyl)tetrahydrofuran-2-yl)-7-(prop-2-yn-1-yl)-7,9-dihydro-1H-purine-6,8-dione] | 376 | less than or equal to 40 μM and 23 μM | < 100 | Systemic delivery by prodrugs compared with loxoribine [2]: substantially greater than loxoribine
7 | C=CCn1c(=O)n([C@@H]2O[C@H](CO)[C@@H](O)[C@H]2O)c2nc(N)[nH]c(=O)c21 [loxoribine, reference compound] | 322 | 136* μM |  | % F (intrinsic bioavailability of loxoribine) ([1]; loxoribine administered orally as loxoribine itself): 2%^b
8 | CCOCc1nc2c(N)nc3ccccc3c2n1CC(C)(C)O [resiquimod] |  |  |  | induction of SEAP production in the TLR8 reporter cell assay (human TLR8): Substantial induction of SEAP production

Now from value to compound, other results behind:

Row | EC50 (human TLR7) [µM] | SMILES | Weighted MEC [3] | individual MEC values [3] [µM] | further results
9 | 512 | Nc1nc2c(c(=O)[nH]1)n(Cc1cccc(F)c1)c(=O)n2[C@@H]1O[C@H](CO)C[C@H]1O [Compound 34, 2-Amino-7-(3-fluorobenzyl)-9-((2R,3R,5S)-3-hydroxy-5-(hydroxymethyl)tetrahydrofuran-2-yl)-7,9-dihydro-1H-purine-6,8-dione] | less than or equal to 40 μM and 40 μM | < 100 | 
10 | 1160 | Nc1nc2c(c(=O)[nH]1)n(Cc1ccc(C(F)(F)F)cc1)c(=O)n2[C@@H]1O[C@H](CO)C[C@H]1O [Compound 35, 2-Amino-9-((2R,3R,5S)-3-hydroxy-5-(hydroxymethyl)tetrahydrofuran-2-yl)-7-(4-(trifluoromethyl)benzyl)-7,9-dihydro-1H-purine-6,8-dione] | 79* μM |  | 
11 | 1210 | C=CCn1c(=O)n([C@@H]2O[C@H](CO)C[C@H]2O)c2nc(N)[nH]c(=O)c21 [Compound 36, 7-Allyl-2-amino-9-((2R,3R,5S)-3-hydroxy-5-(hydroxymethyl)tetrahydrofuran-2-yl)-7,9-dihydro-1H-purine-6,8-dione] | 100 µM |  | 
12 | 564 | CCCCn1c(=O)n([C@@H]2O[C@H](CO)C[C@H]2O)c2nc(N)[nH]c(=O)c21 [Compound 37, 2-Amino-7-butyl-9-((2R,3R,5S)-3-hydroxy-5-(hydroxymethyl)tetrahydrofuran-2-yl)-7,9-dihydro-1H-purine-6,8-dione] | 50 µM |  | 
